This note sets out measurements from US9783536B2, “Nitrogen-containing heterocyclic compound or salt thereof” (FUJIFILM Corporation, priority 2013, dated 2017).

Counter-ions that a name gives are not always drawn.

Test [1] addresses T1, GST fusion human ERK2 protein (Homo sapiens, UniProt P28482).
T1 construct: purchased Carna Biosciences, Inc; host or cells: E. coli expression system
The test is described as follows: ERK2 enzyme assay (1). It counts as biochemical. The note with it: ERK2 enzyme assay (1); read-out: ERK2 enzyme inhibitory activity (1). An outline of the steps:
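Enzyme (2.5 nmol/L, E. coli-expressed) preincubated with compound 15 min at room temperature in HEPES/MgCl2/DTT/Brij35 buffer, pH 7.5; reaction with 4.25 μmol/L FL-Peptide 8 and 43.1 μmol/L ATP for 120 min at 25 °C. Phosphorylated peptide fraction quantified by mobility-shift separation after EDTA stop; IC50 calculated.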

The target of test [2] is T2, human PI3Kα protein (Homo sapiens, UniProt P42336).
T2 construct: purchased Carna Biosciences, Inc; host or cells: baculovirus expression system
The test can be described thus: PI3Kα enzyme assay (ADP-Glo). The conditions noted are these: read-out: PI3Kα enzyme inhibitory activity. It counts as biochemical. In outline:
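Biotinylated human PI3Kα (baculovirus-expressed, 4.5 nmol/L) pre-incubated 15 min with compound in Tris-HCl pH 7.5, MgCl2, BSA; reaction 60 min at 25° C with 50 μmol/L PIP2 and 100 μmol/L ATP final. ADP quantified by ADP-Glo luminescence; IC50 calculated.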

T1 sequence (P28482 whole entry, the tested form may be a part): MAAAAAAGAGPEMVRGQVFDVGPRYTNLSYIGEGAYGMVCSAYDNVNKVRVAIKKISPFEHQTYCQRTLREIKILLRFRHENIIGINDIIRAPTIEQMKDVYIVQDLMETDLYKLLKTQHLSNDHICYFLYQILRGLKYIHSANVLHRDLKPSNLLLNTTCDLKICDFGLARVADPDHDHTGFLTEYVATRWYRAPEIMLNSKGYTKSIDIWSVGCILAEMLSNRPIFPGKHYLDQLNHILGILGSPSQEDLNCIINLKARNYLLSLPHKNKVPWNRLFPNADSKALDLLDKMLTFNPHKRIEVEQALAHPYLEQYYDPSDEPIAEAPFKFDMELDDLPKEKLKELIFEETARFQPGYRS
T2 sequence (P42336 whole entry): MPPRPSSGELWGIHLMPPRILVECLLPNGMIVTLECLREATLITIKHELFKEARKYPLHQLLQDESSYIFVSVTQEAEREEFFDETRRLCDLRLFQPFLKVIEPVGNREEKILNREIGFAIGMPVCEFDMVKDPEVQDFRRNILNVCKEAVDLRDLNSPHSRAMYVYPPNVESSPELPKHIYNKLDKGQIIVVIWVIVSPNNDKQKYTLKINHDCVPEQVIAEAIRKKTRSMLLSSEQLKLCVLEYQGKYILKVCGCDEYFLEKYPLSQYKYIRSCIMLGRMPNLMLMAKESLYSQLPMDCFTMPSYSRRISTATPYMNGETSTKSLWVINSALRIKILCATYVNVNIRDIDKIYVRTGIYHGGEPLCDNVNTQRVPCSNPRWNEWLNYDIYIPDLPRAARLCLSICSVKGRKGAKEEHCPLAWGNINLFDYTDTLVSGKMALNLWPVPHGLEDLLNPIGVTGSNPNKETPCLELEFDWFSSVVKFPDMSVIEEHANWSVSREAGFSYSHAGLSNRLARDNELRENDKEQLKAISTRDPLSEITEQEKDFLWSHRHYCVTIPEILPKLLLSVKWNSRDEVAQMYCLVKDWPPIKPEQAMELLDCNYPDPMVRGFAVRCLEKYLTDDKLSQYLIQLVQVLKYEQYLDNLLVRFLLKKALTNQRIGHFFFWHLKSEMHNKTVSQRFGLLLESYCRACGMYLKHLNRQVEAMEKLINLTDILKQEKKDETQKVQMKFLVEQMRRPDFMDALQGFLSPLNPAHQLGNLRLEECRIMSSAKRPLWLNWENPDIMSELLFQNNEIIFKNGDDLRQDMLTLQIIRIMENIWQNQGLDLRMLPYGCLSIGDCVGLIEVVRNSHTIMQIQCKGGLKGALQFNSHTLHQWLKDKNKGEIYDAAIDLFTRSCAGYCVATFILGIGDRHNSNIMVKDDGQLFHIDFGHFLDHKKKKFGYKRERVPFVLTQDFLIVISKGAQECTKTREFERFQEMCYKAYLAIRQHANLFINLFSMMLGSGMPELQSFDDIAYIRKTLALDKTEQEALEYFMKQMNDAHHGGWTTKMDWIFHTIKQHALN
T2 sequence (P27986 whole entry partner): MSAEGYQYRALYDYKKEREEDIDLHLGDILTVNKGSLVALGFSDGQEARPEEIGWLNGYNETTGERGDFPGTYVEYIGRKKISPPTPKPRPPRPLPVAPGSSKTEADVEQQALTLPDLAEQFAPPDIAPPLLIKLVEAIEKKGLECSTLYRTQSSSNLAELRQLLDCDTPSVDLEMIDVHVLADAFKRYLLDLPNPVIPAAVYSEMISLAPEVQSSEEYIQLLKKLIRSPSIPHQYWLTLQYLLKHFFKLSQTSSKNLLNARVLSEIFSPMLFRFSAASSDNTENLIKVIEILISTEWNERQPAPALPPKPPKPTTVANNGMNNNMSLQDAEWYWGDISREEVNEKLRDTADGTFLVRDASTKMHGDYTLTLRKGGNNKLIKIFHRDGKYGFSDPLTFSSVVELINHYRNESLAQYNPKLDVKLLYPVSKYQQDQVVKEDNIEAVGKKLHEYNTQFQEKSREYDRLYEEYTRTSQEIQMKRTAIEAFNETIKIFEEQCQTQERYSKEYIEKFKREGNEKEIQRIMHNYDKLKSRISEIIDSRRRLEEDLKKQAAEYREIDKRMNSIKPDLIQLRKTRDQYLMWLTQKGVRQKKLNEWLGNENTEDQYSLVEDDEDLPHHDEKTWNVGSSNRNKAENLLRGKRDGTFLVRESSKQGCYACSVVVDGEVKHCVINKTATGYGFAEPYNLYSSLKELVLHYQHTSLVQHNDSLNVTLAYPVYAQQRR

Consider `CC(C)c1nnc(Nc2ccc3nccc(-c4cnccn4)c3n2)s1` [Example 0282], for which the IC50 in test [1] and in test [2] was 1000 to 10000 nM throughout.
On to `CC(C)c1nnc(Nc2ccc3nccc(-c4ccnnc4)c3n2)s1` [Example 0283], for which the IC50 in test [1] and in test [2] was < 1000 nM in each case.
For `CC(C)c1nnc(Nc2ccc3nccc(-c4cn[nH]c4)c3n2)s1` [Example 0284], the IC50 was 1000 to 10000 nM in test [1] and < 1000 nM in test [2].
For `CC(C)c1nnc(Nc2ccc3nccc(-c4ccn[nH]4)c3n2)s1` [Example 0285], in that order: < 1000 nM and < 1000 nM.
With `CC(C)c1nnc(Nc2ccc3nccc(N4CCOCC4)c3n2)s1` [Example 0286, 5-isopropyl-N-(8-morpholino-1,5-naphthyridin-2-yl)-1,3,4-thiadiazole-2-amine], the IC50 in test [1] and in test [2] was 1000 to 10000 nM throughout.
As to `CC(C)c1nnc(Nc2ccc3nccc(-c4cccc(C(N)=O)c4)c3n2)s1` [Example 0287], the IC50 in test [1] and in test [2] was < 1000 nM each time.
With `CC(C)c1nnc(Nc2ccc3nccc(-c4ccc(C(N)=O)cc4)c3n2)s1` [Example 0288], the IC50 in test [1] and in test [2] was < 1000 nM each time.
As to `CC(C)c1nnc(Nc2ccc3nccc(-c4cc[nH]c(=O)c4)c3n2)s1` [Example 0289, 4-(6-((5-isopropyl-1,3,4-thiadiazol-2-yl)amino)-1,5-naphthyridin-4-yl)pyridin-2(1H)-one], the IC50 was 1000 to 10000 nM in test [1] and < 1000 nM in test [2].
For `CCC(C)(C)c1cnnc(Nc2ccc3ncc(-c4cnn(CCCN5CCCC5)c4)cc3n2)c1` [Example 0296], in that order: < 1000 nM and < 1000 nM.
For `c1ccc(-c2cnnc(Nc3ccc4ncc(-c5cnn(CCCN6CCCC6)c5)cc4n3)c2)cc1` [Example 0297, N-(5-phenylpyridazin-3-yl)-7-(1-(3-(pyrrolidin-1-yl)propyl)-1H-pyrazol-4-yl)-1,5-naphthyridine-2-amine], in that order: < 1000 nM and < 1000 nM.
For `CCCCCc1nnc(Nc2ccc3ncc(-c4cnn(C)c4)cc3n2)[nH]1` [Example 0299, 7-(1-methyl-1H-pyrazol-4-yl)-N-(5-pentyl-4H-1,2,4-triazol-3-yl)-1,5-naphthyridine-2-amine], in that order: < 1000 nM and 10000 to 50000 nM.
As to `Cn1cc(-c2cnc3ccc(Nc4nnc[nH]4)nc3c2)cn1` [Example 0300, 7-(1-Methyl-1H-pyrazol-4-yl)-N-(4H-1,2,4-triazol-3-yl)-1,5-naphthyridine-2-amine], the IC50 in test [1] was < 1000 nM; in test [2], 1000 to 10000 nM.
For `CN(C)CCn1cc(-c2cnc3ccc(Nc4nnc(C5CCCC5)s4)nc3c2)cn1` [Example 0304, 5-Cyclopentyl-N-(7-(1-(2-(dimethylamino)ethyl)-1H-pyrazol-4-yl)-1,5-naphthyridin-2-yl)-1,3,4-thiadiazole-2-amine], in that order: < 1000 nM and < 1000 nM.
For `c1nnc(Nc2ccc3ncc(-c4cnn(CCCN5CCNCC5)c4)cc3n2)s1` [Example 0305, N-(7-(1-(3-(piperazin-1-yl)propyl)-1H-pyrazol-4-yl)-1,5-naphthyridin-2-yl)-1,3,4-thiadiazole-2-amine hydrochloride], the IC50 in test [1] and in test [2] was < 1000 nM in each case.
For `Cn1cc(-c2cc3nc(Nc4nncs4)ccc3nc2N)cn1` [Example 0306, 7-(1-methyl-1H-pyrazol-4-yl)-N^2-(1,3,4-thiadiazol-2-yl)-1,5-naphthyridine-2,6-diamine], the IC50 in test [1] and in test [2] was < 1000 nM in each case.
Turning to `COCCCNc1cnc2ccc(Nc3nnc(C4CCCC4)s3)nc2c1` [Example 0307], the IC50 in test [1] and in test [2] was < 1000 nM in each case.
Regarding `COCCNc1cnc2ccc(Nc3nnc(C4CCCC4)s3)nc2c1` [Example 0308], the IC50 in test [1] was < 1000 nM; in test [2] it was 1000 to 10000 nM.
As to `COCCN(C)c1cnc2ccc(Nc3nnc(C4CCCC4)s3)nc2c1` [Example 0309], the IC50 in test [1] was < 1000 nM; in test [2], 1000 to 10000 nM.
For `OCCNc1cnc2ccc(Nc3nnc(C4CCCC4)s3)nc2c1` [Example 0310], in that order: < 1000 nM and 1000 to 10000 nM.
For `c1nc2ccc(Nc3nnc(C4CCCC4)s3)nc2cc1NC1CCOCC1` [Example 0312], in that order: < 1000 nM and < 1000 nM.
Take `O[C@@H]1CCN(c2cnc3ccc(Nc4nnc(C5CCCC5)s4)nc3c2)C1` [Example 0313]: the IC50 is < 1000 nM in test [1] and 1000 to 10000 nM in test [2].
For `O[C@H]1CCN(c2cnc3ccc(Nc4nnc(C5CCCC5)s4)nc3c2)C1` [Example 0314], in that order: < 1000 nM and 1000 to 10000 nM.
For `c1cc(Nc2cnc3ccc(Nc4nnc(C5CCCC5)s4)nc3c2)no1` [Example 0315, N^2-(5-cyclopentyl-1,3,4-thiadiazol-2-yl)-N^7-(isoxazol-3-yl)-1,5-naphthyridine-2,7-diamine], in that order: < 1000 nM and 1000 to 10000 nM.
For `CN(C)CC(C)(C)Cn1cc(-c2cnc3ccc(Nc4nnc(C5CCCC5)s4)nc3c2)cn1` [Example 0317, 5-Cyclopentyl-N-(7-(1-(3-(dimethylamino)-2,2-dimethylpropyl)-1H-pyrazol-4-yl)-1,5-naphthyridin-2-yl)-1,3,4-thiadiazole-2-amine], in that order: < 1000 nM and < 1000 nM.
As to `c1nc2ccc(Nc3nnc(C4CCCC4)s3)nc2cc1NC1CCOC1` (stereo not drawn) [Example 0319, N^2-(5-cyclopentyl-1,3,4-thiadiazol-2-yl)-N^7-(tetrahydrofuran-3-yl)-1,5-naphthyridine-2,7-diamine], the IC50 in test [1] and in test [2] was < 1000 nM in each case.
As for `Cc1nnc(Nc2ccc3ncc(-c4cnn(CCCN5CCCC5)c4)cc3n2)s1` [Example 0323], the IC50 in test [1] and in test [2] was < 1000 nM in each case.
With `c1nc2ccc(Nc3nnc(C4CCCO4)s3)nc2cc1-c1cnn(C2CCNCC2)c1` (stereo not drawn) [Example 0324, N-(7-(1-(piperidin-4-yl)-1H-pyrazol-4-yl)-1,5-naphthyridin-2-yl)-5-(tetrahydrofuran-2-yl)-1,3,4-thiadiazole-2-amine], the IC50 in test [1] and in test [2] was < 1000 nM each time.
On to `CN(c1cnc2ccc(Nc3nnc(C4CCCC4)s3)nc2c1)C1CCOC1` (stereo not drawn) [Example 0326, N^2-(5-cyclopentyl-1,3,4-thiadiazol-2-yl)-N^7-methyl-N^7-(tetrahydrofuran-3-yl)-1,5-naphthyridine-2,7-diamine], for which the IC50 in test [1] and in test [2] was < 1000 nM each time.
Regarding `C1=C(c2cnc3ccc(Nc4nnc(C5CCCC5)s4)nc3c2)CCNC1` [Example 0330, 5-cyclopentyl-N-(7-(1,2,3,6-tetrahydropyridin-4-yl)-1,5-naphthyridin-2-yl)-1,3,4-thiadiazole-2-amine hydrochloride], the IC50 is < 1000 nM in test [1] and 1000 to 10000 nM in test [2].
For `c1nc2ccc(Nc3nnc(C4CCCC4)s3)nc2cc1C1CCNCC1` [Example 0332, 5-Cyclopentyl-N-(7-(piperidin-4-yl)-1,5-naphthyridin-2-yl)-1,3,4-thiadiazole-2-amine hydrochloride], in that order: < 1000 nM and 10000 to 50000 nM.
